Laboratory results reported in patent US9737525B2, “Small molecule activators of NRF2 pathway” (The General Hospital Corporation, priority 2013, dated 2017).

Assays:
[1] = tested on: primary neurons from HD140CAG mice; assay: ROS detection assay in primary neurons; format: cell-based, mouse; details: 0.1 μM and 0.25 μM, 4 days
Protocol: Elevated levels of reactive oxygen species (ROS) have been implicated in normal brain aging and in the pathogenesis of numerous neurodegenerative diseases, including HD. The neuroprotective properties of NRF2 activation have been reported to boost antioxidant defenses in astrocytes, but in this study it was determined whether NRF2 induction mediates protective antioxidant activity in mutant Htt expressing primary neurons. It was determined whether NRF2 activation could reduce mHtt associated ROS in primary neurons isolated from embryonic brains (E15-E17) of HD140CAG mice, which display strikingly elevated ROS levels compared to cells derived from wild type mice. HD and wild type neurons were treated with MIND4-17 at 0.1 μM and 0.25 μM doses for 4 days, and ROS were measured.
ROS detection in primary neurons was performed as previously described by [Valencia, 2013]. Briefly, neurons were plated on glass coverslips pretreated with poly-L-lysine for 24 hours. At 4 DIV wild type and HDQ140 neurons were treated with compound MIND4-17 at 4 DIV, then ROS were measured in live cells at 8 DIV. Prior to ROS measurements, neurons were loaded with […] of the non-fluorescent ROS-detector carboxy-DCFDA-AM (Invitrogen) for 15 min at 37° C. […] Images were acquired through a 60× oil immersion Nikon Apo objective DIC H (NA 1/4 1.4) and quantified using ImageJ software (NIH).

primary human monocytes = assay: LDH cell death assay in primary human monocytes; format: cell-based; details: any concentration
Protocol: Blood samples were obtained from control subjects and genetically-diagnosed, symptomatic HD patients. Patients were classed as having early or moderate-stage disease using the total functional capacity (TFC) scale (13-7, early; 6-3, moderate) [Marder, 2000]. Subjects with inflammatory or infective conditions were excluded. Cells were isolated from whole blood, as previously described [Björkqvist, 2008]. In brief, 50 ml whole blood was collected in heparin (CP Pharmaceuticals) and leukocytes were isolated by density gradient centrifugation. Monocytes were sorted via magnetic cell separation columns using anti-CD14 microbeads (Miltenyi Biotec). Monocytes were seeded at 1×10^5 cells per well in 96-well PRIMARIA™ tissue culture plates (BD Falcon) with R10 media (RPMI culture medium supplemented with 10% FCS, 2 mM L-glutamine, 50 U/ml penicillin and […] streptomycin (Invitrogen)). […] Supernatants were analyzed using the human pro-inflammatory II (4-plex) MSD assay measuring IL-1b, IL-6, IL-8 and TNFα. […] Cell death was measured using a LDH assay (CytoTox-Fluor™ Cytotoxicity Assay from Promega). Normalized cytokine levels have been analyzed on the logarithmic scale due to their skewed distribution. […] Contrasts of interest were then calculated using linear combinations of parameter estimates.

O=[N+]([O-])c1ccc(Sc2nnc(COc3ccccc3)n2-c2ccccc2)nc1 [MIND4-17]
Basal ROS levels in wild type neurons [1]: No effects on basal ROS levels were detected | ROS levels in HD neurons [1]: significant reduction of ROS | Toxic effect on viability of primary human monocytes (primary human monocytes): Neither vehicle (DMSO) or MIND4-17 had a toxic effect
